System: c-Myc duplex (18 bp, d(AGGGTGGGG)2:d(CCCCACCCT)2) (DNA, duplex) AGGGTGGGGAGGGTGGGG/CCCCACCCTCCCCACCCT
Test: UV absorption titration, Scatchard
Settings: 137 mM Na+ (NaCl), 5.4 mM K+ (KCl), 1.3 mM Ca2+, 1 mM Mg2+; Hanks' buffer, pH 7.2, 20 °C; single type of site; per site

O=C1NC(=O)c2c1c1c3ccccc3[nH]c1c1c2c2ccccc2n1[C@@H]1OC[C@H](O)[C@H](O)[C@H]1O
K1: 0.8 ± 0.1 × 10^6 M^-1
